Results from PubChem BioAssay (NCI).
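Method: 48-hour compound exposure of cells in 96-well plates, five concentrations, linear interpolation of endpoints. TGI is the concentration that stops growth completely.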

Legend:
Test in all cases: inhibition of tumour cell growth, NCI panel, 48 h
T-47D breast = tested on: T-47D breast
M14 melanoma = tested on: M14 melanoma
COLO 205 colon = tested on: COLO 205 colon
SF-268 CNS = tested on: SF-268 CNS
HS 578T breast = tested on: HS 578T breast
LOX IMVI melanoma = tested on: LOX IMVI melanoma
HL-60(TB) leukemia = tested on: HL-60(TB) leukemia
UACC-257 melanoma = tested on: UACC-257 melanoma
NCI/ADR-RES ovarian = tested on: NCI/ADR-RES ovarian
NCI-H226 lung = tested on: NCI-H226 lung
MDA-MB-231 breast = tested on: MDA-MB-231 breast
MCF7 breast = tested on: MCF7 breast
SR leukemia = tested on: SR leukemia
SW-620 colon = tested on: SW-620 colon
MDA-N = tested on: MDA-N
UO-31 renal = tested on: UO-31 renal
HCT-116 colon = tested on: HCT-116 colon
RXF 393 renal = tested on: RXF 393 renal
SNB-19 CNS = tested on: SNB-19 CNS
NCI-H522 lung = tested on: NCI-H522 lung
MDA-MB-435 = tested on: MDA-MB-435
EKVX NSCLC = tested on: EKVX NSCLC
IGROV1 ovarian = tested on: IGROV1 ovarian
HOP-62 NSCLC = tested on: HOP-62 NSCLC
DU-145 prostate = tested on: DU-145 prostate
SK-MEL-5 melanoma = tested on: SK-MEL-5 melanoma
SK-MEL-2 melanoma = tested on: SK-MEL-2 melanoma
NCI-H460 lung = tested on: NCI-H460 lung
OVCAR-8 ovarian = tested on: OVCAR-8 ovarian
HCC-2998 colon = tested on: HCC-2998 colon
OVCAR-4 ovarian = tested on: OVCAR-4 ovarian
SF-295 CNS = tested on: SF-295 CNS
HOP-92 NSCLC = tested on: HOP-92 NSCLC
SK-MEL-28 melanoma = tested on: SK-MEL-28 melanoma
MALME-3M melanoma = tested on: MALME-3M melanoma
HT29 colon = tested on: HT29 colon
SN12C renal = tested on: SN12C renal
TK-10 renal = tested on: TK-10 renal
K-562 leukemia = tested on: K-562 leukemia
A549 NSCLC = tested on: A549 NSCLC
HCT-15 colon = tested on: HCT-15 colon
A498 renal = tested on: A498 renal
OVCAR-3 ovarian = tested on: OVCAR-3 ovarian
PC-3 prostate = tested on: PC-3 prostate
786-0 renal = tested on: 786-0 renal
BT-549 breast = tested on: BT-549 breast
SK-OV-3 ovarian = tested on: SK-OV-3 ovarian
OVCAR-5 ovarian = tested on: OVCAR-5 ovarian
ACHN renal = tested on: ACHN renal
NCI-H23 lung = tested on: NCI-H23 lung
MOLT-4 leukemia = tested on: MOLT-4 leukemia
SNB-75 CNS = tested on: SNB-75 CNS
RPMI-8226 leukemia = tested on: RPMI-8226 leukemia
U251 CNS = tested on: U251 CNS
SF-539 CNS = tested on: SF-539 CNS
CAKI-1 renal = tested on: CAKI-1 renal

Measured: TGI

COC(=O)/C(C#N)=C(\Nc1ccccc1)N1CCCC1
> 100 µM: all assays above
